Measurements: patent US9618509B2 (priority 2007, dated 2017)

Columns and labels:
[1] = system: PBMC isolated from M. bovis-infected cattle; format: cell-based
[2] = system: PBMC isolated from M. bovis-infected cattle; format: cell-based; remark: listed apart in the source
[3] = system: M. bovis infected cattle; conditions: Mustafa et al., 2006, cited from earlier work

Substance | recognition / response in ELISPOT (cattle responding of the three tested) [1] | intracellular IFN-γ production [2] | further results
AKIYSEADEA WRKAIDGLFT (AKIYSEADEAWRKAIDGLFT; fragment of full length protein) [SEQ ID NO: 13] | all three | Markedly higher levels of IFN-γ | average spot-forming units (SFU) [1]: 509 SFU per 10^6 PBMC
GVDLAKSLRI AAKIYSEADE (GVDLAKSLRIAAKIYSEADE; fragment of full length protein) [SEQ ID NO: 11] | a response was recorded | no IFN-γ response | dead cells in the sample [2]: > 64%
LGSSLHTAGV DLAKSLRIAA (LGSSLHTAGVDLAKSLRIAA; fragment of full length protein) [SEQ ID NO: 10] |  | Markedly higher levels of IFN-γ | 
RIAAKIYSEA DEAWRKAIDG (RIAAKIYSEADEAWRKAIDG; fragment of full length protein) [SEQ ID NO: 12] |  | Markedly higher levels of IFN-γ | 
Rv3616c: product of the first gene of the Rv3616c-Rv3612c operon, a dominant mycobacterial antigen (Mustafa et al., 2006) |  |  | vaccinated individuals that respond ([3]; BCG vaccinated): 40%; frequency of recognition in M. bovis infected cattle [3]: 84.6%
VYLTAHNALG SSLHTAGVDL (VYLTAHNALGSSLHTAGVDL; fragment of full length protein) [SEQ ID NO: 9] |  | Markedly higher levels of IFN-γ | 
